Publication PMC2944806, “HLA Class I Binding of HBZ Determines Outcome in HTLV-1 Infection” (PLoS Pathogens, 2010)

Tests used:
[1] = biological target: HLA class I molecule B*3501 (Homo sapiens, UniProt P01889, A329T/A93T/A95T/C349S/D201E/D98Y/E176V/E187L/E204Q/E69T/I218V/K202T/L119I/Q94N/R155S/R180L/S121R/S35A/S48A/T118I/V127L/V306I/V36M/Y140S/Y91F); assay: REVEAL HLA-peptide binding assay, B*3501; details: assembly of peptide-HLA complex by ELISA with conformation-dependent anti-HLA antibody, relative to positive control peptide for that allele, comparable within an allele only
[2] = biological target: T1, HLA class I molecule A*0201 (Homo sapiens, UniProt P04439, D140Y/D185E/D98H/E176V/E277Q/G131W/G231S/I119V/I121R/I166T/I218V/L300P/L318F/N151K/N90K/P208A/P217A/Q86G/Q94H/R138H/R169H/T345S); assay type: binding; details: REVEAL assay, assembly of peptide-HLA complex by ELISA with conformation-dependent anti-HLA antibody, relative to positive control peptide for that allele, comparable within an allele only
T1 construct: purchased ProImmune Ltd., Oxford, UK

[3] = biological target: T2, HLA class I molecule B*0702 (Homo sapiens, UniProt P01889); assay: REVEAL HLA-peptide binding assay, B*0702; set-up: concentration or dose not given beside the values; details: assembly of peptide-HLA complex by ELISA with conformation-dependent anti-HLA antibody, relative to positive control peptide for that allele, comparable within an allele only
T2 construct: purchased ProImmune Ltd., Oxford, UK
Method: The REVEAL HLA-peptide binding assay (ProImmune Ltd., Oxford, UK) was used to quantify peptide-HLA binding. For each allele-peptide combination that was tested, assembly of peptide-HLA complexes was quantified by ELISA with a conformation-dependent anti-HLA antibody. Samples of assembling peptide-HLA complexes were taken at a defined time point and snap-frozen in liquid nitrogen prior to analysis. The assembly for each peptide-HLA complex was then compared against a positive control peptide for that allele as the percentage of assembled peptide relative to that control. We selected four HLA class I alleles and 50 HTLV-1 peptides for each allele. The allele choice was based on allele frequency in the Kagoshima database and included 2 A alleles and 2 B alleles as well as alleles for which we knew that the epitope prediction tended to be poor. The 50 HTLV-1 nonamer peptides for each allele were selected to represent a range of predicted binding affinities, from weak to strong binding peptides. They originated from 4 HTLV-1 reference strain proteins: Tax, HBZ, Gag and Polymerase.
Note the binding score is with respect to a reference good binding peptide for each allele and therefore scores can be compared within an allele but not between alleles.

[4] = biological target: T3, HLA class I molecule A*2402 (Homo sapiens, UniProt P04439, D101N/D140Y/D185E/E176V/E190D/F33S/G103R/G107R/I119L/I121M/I306V/K335N/L105A/L180Q/L300P/N151K/N90K/Q86E/Q94H/R106L/R138H/R89G/T104I/T345S/V100E/W191G/Y123F); assay type: binding; details: REVEAL assay, assembly of peptide-HLA complex by ELISA with conformation-dependent anti-HLA antibody, relative to positive control peptide for that allele, comparable within an allele only
T3 construct: purchased ProImmune Ltd., Oxford, UK

[5] = tested on: autologous B-LCL loaded with HBZ26–34 peptide; assay: Chromium release assay, peptide-loaded B-LCL; assay type: cell-based, human; details: 1 µM HBZ 26–34 peptide, 4 h, ^51Cr release; data not shown
Method: PBMC from HLA A*0201^+ and HLA A*0201^− HTLV-1 infected individuals were depleted of CD8^+ cells, then enriched for CD25^+ cells using MACS beads (Miltenyi Biotech, Germany), according to manufacturer's instructions. CD25^+ cells were cultured for 16h to allow for viral antigen expression and presentation, then labelled with ^51Cr by incubating for 1h in the presence of 50–100 µCi Na2CrO4 (MP Biomedicals, USA). Labelled cells were washed extensively and placed in culture in triplicate (40,000 cells/well) in the presence of defined ratios of HBZ-1, a CTL clone which recognises HBZ 26–34 in the context of HLA A*0201 [37], alone or in the presence of 5% Triton x-100 (Sigma Aldrich). As a control, ^51Cr labelled B-LCL (autologous to the CTL clone) were cultured at the same ratios, with and without 1 µM HBZ 26–34 peptide. […] Total specific lysis was calculated using the following formula: [chromium release (test well)−chromium release (no CTL control)]/ [chromium release (Triton−100% lysis)−chromium release (no CTL control)]*100, expressed as a percentage specific lysis of total cells. […] Percentage infected cells lysed was calculated using the following formula: [Percentage total cells lysed]/[fraction of CD4^+CD25^+ cells that are infected i.e. provirus positive].

Row | Sequence | Score (experimentally measured binding affinity, % binding compared to control peptide) [1] [%] | Score (experimentally measured binding affinity, % binding compared to control peptide) [2] [%] | Score (experimentally measured binding affinity, % binding compared to control peptide) [3] [%] | Score (experimentally measured binding affinity, % binding compared to control peptide) [4] [%] | Lysis of peptide-loaded autologous B-LCL by the HBZ-specific CD8^+ T cell clone [5]
1 | GFGQSLLFG [HTLV-1 nonamer peptide] | 0 | 0.29 | 0 | 1.06 | –
2 | RVIGSALQF [HTLV-1 nonamer peptide] | 42.94 | – | 87.63 | 65.17 | –
3 | SAQWIPWRL [HTLV-1 nonamer peptide] | 14.94 | 24.03 | 0 | 27.07 | –
4 | GLLSLEEEL [HTLV-1 nonamer peptide, HBZ26–34, recognised in the context of HLA-A*0201] | – | 63.68 | – | – | could be lysed by the CD8^+ T cell clone
5 | QAMRKYSPF [HTLV-1 nonamer peptide] | 69.18 | – | 140.22 | 56.78 | –
6 | ASGLFRCLP [HTLV-1 nonamer peptide] | 0 | 2.99 | 2 | 4.14 | –
7 | AVLDGLLSL [HTLV-1 nonamer peptide] | 0 | 92.9 | 18.76 | 1.41 | –
8 | KALMPVFTL [HTLV-1 nonamer peptide] | 11.5 | 79.88 | 40.22 | 8.05 | –
9 | LAAHHWLNF [HTLV-1 nonamer peptide] | 75.12 | – | 4.59 | 35.91 | –
